Literature values as cited in publication PMC3989431 (Peptides, 2013).

Tested on: H. zea pupae
Settings: earlier in vivo bioassay

## AWFGPRLa
  in vivo activity: without in vivo activity
